Type in all cases: in vivo
Test [1] relates to Bean Powdery Mildew organism Erisiphe polygoni. Put plainly: Bean Powdery Mildew control. The following applies: 240 h, 10 days, vs untreated check, read-out: Fungicidal Activity Control %, Bean P.M. The procedure:
The compounds of the invention were tested for the control of the Bean Powdery Mildew organism […] polygoni. Seedling bean plants were sprayed with a 250 ppm solution of the test compound in acetone, water and a nonionic emulsifier. The sprayed plants were then inoculated 1 day later with organism. […] The percent disease control provided by a given test compound was based on the percent disease reduction relative to the untreated check plants.

The test system of test [2] is Soybean. Put plainly: Pre-emergent herbicidal test. The following applies: Glycine max, 504 h; pre-emergence; 33 micrograms/cm^2; 3 weeks; 0-to-100 scale; read-out: Herbicidal Activity Pre-Emergence % Control, Soybean. Here is the method:
(§1) An acetone solution of the test compound was prepared by mixing 750 mg of the compound, 220 mg of a nonionic surfactant and 25 ml of acetone. This solution was added to approximately 125 ml of water containing 156 mg of surfactant.
(§2) Seeds of the test vegetation were planted in a pot of […] and the test solution was sprayed uniformly onto the soil surface at a dose of 33 micrograms/cm^2. The pot was watered and placed in a greenhouse. […] At the end of this period, the herbicidal effectiveness of the compound was rated based on the physiological observations. A 0-to-100 scale was used, 0 representing no phytotoxicity, 100 representing complete kill.

Test [3] concerns Wild Oats (Avena fatura). As to the kind of experiment: Pre-emergent herbicidal test. Conditions: 504 h, pre-emergence, 33 micrograms/cm^2, 3 weeks, 0-to-100 scale. The procedure: as §1, §2
Test [4] concerns Crabgrass (Digitaria sanguinalis). As to the kind of experiment: Pre-emergent herbicidal test. Conditions: 504 h, pre-emergence, 33 micrograms/cm^2, 3 weeks, 0-to-100 scale, read-out: Herbicidal Activity Pre-Emergence % Control, Crab Grass. The procedure:
as §1, §2

The test system of test [5] is Lambsquarter (Chenopodium album). Put plainly: Pre-emergent herbicidal test. Conditions: 504 h, pre-emergence, 33 micrograms/cm^2, 3 weeks, 0-to-100 scale, read-out: Herbicidal Activity Pre-Emergence % Control, L'Qtr. Here is the method:
as §1, §2

Test [6] concerns Pigweed (Amaranthus retraflexus). Put plainly: Pre-emergent herbicidal test. Conditions: 504 h, pre-emergence, 33 micrograms/cm^2, 3 weeks, 0-to-100 scale. Here is the method:
as §1, §2

The test system of test [7] is Watergrass (Echinochloa crusgalli). Put plainly: Pre-emergent herbicidal test. Conditions: Echinochloa crus-galli, 504 h; pre-emergence; 33 micrograms/cm^2; 3 weeks; 0-to-100 scale; read-out: Herbicidal Activity Pre-Emergence % Control, Water Grass. The procedure: as §1, §2
The subject of test [8] is Mustard (Brassica arvensis). Put plainly: Pre-emergent herbicidal test. The following applies: 504 h, pre-emergence, 33 micrograms/cm^2, 3 weeks, 0-to-100 scale. Here is the method: as §1, §2
A further test deals with Cotton plants. As to the kind of experiment: Cotton Regrowth. Conditions: Gossypium hirsutum, 13 to 18 days, 100% is total inhibition, read-out: Regrowth (percent inhibition of cotton regrowth). The procedure: Compounds of this invention were tested to determine their plant-growth regulating effects on cotton leaf regrowth.
Cotton plants, 4 to 5 weeks old, containing 4 true leaves above the cotyledonary leaves are employed. Growth beyond the second true leaf was removed. Within 24 hours the plants are sprayed with a 2000 ppm solution of the test compound. After spraying, the plants are transferred to a greenhouse maintained at 85° F. (±5° F.) and incubated there for from 13 to 18 days. The plants during this period are sub-irrigated in 1/4" of water.
After this period, regrowth is determined as a percent inhibition of auxiliary bud regrowth--100% is total inhibition while 0% is no inhibition.

Test [9] concerns tomato Early Blight organism, Alternaria solani conidia. As to the kind of experiment: Tomato Early Blight control. The following applies: 288 h, about 12 days in greenhouse, vs untreated check, read-out: Fungicidal Activity Control %, Tomato E.B. The procedure: Compounds of the invention were tested for the control of the tomato Early Blight organism, Alternaria solani conidia. Tomato (variety Bonny Best) seedlings of 6 to 7 weeks old were used. The tomato plants were sprayed with a 250 ppm solution of the test compound in an acetone-and-water solution containing a small amount of a nonionic emulsifier. The sprayed plants were inoculated one day later with the organism, placed in the environmental chamber and incubated at […] and 100% relative humidity for 24 hours. Following the incubation, the plants were maintained in a greenhouse for about 12 days. Percent diseases control was based on the percent disease development on untreated check plants.

In test [10] the test system is grape downy mildew organism Plasmopara viticola. As to the kind of experiment: Grape Downy Mildew control (detached grape leaves). Conditions: vs untreated check, read-out: Fungicidal Activity Control %, Grape D.M.
For test [11], the system named is celery late blight organism Septoria apii. Put plainly: whole plant or invertebrate. Conditions: 336 h, read-out: Fungicidal Activity Control %, Celery L.B.
The test system of test [12] is Soybean. Put plainly: Post-emergent herbicidal test. The following applies: Glycine max, 504 h, post-emergence, 33 micrograms/cm^2, 3 weeks, 0-to-100 scale, read-out: Herbicidal Activity Post-Emergence % Control, Soybean.
Test [13] concerns Wild Oats (Avena fatura). As to the kind of experiment: Post-emergent herbicidal test. The following applies: 504 h, post-emergence, 33 micrograms/cm^2, 3 weeks, 0-to-100 scale.
The test system of test [14] is Crabgrass (Digitaria sanguinalis). Put plainly: Post-emergent herbicidal test. Conditions: 504 h, post-emergence, 33 micrograms/cm^2, 3 weeks, 0-to-100 scale, read-out: Herbicidal Activity Post-Emergence % Control, Crab Grass.
For test [15], the system named is Lambsquarter (Chenopodium album). As to the kind of experiment: Post-emergent herbicidal test. Conditions: 504 h, post-emergence, 33 micrograms/cm^2, 3 weeks, 0-to-100 scale, read-out: Herbicidal Activity Post-Emergence % Control, L'Qtr.
In test [16] the test system is Pigweed (Amaranthus retraflexus). As to the kind of experiment: Post-emergent herbicidal test. The following applies: 504 h, post-emergence, 33 micrograms/cm^2, 3 weeks, 0-to-100 scale.
The subject of test [17] is Watergrass (Echinochloa crusgalli). As to the kind of experiment: Post-emergent herbicidal test. The following applies: Echinochloa crus-galli, 504 h, post-emergence, 33 micrograms/cm^2, 3 weeks, 0-to-100 scale, read-out: Herbicidal Activity Post-Emergence % Control, Water Grass.
Test [18] has as its system Mustard (Brassica arvensis). As to the kind of experiment: Post-emergent herbicidal test. The following applies: 504 h, post-emergence, 33 micrograms/cm^2, 3 weeks, 0-to-100 scale.
In a further test the test system is Idaho pinto bean plants. As to the kind of experiment: Axillary Bud Growth Inhibition Of Pinto Bean Plants. Conditions: 288 h; 625-ppm; twelve days after treatment; vs untreated check; read-out: Bud Inhib (percent inhibition of axillary bud growth). Here is the method: Compounds of this invention were tested to determine their plant-growth-retarding effects on axillary bud growth of pinto beans.
Idaho pinto bean plants (13-16 days old) having monofoliate leaves fully developed and first trifoliates beginning to unfold were used. All growth 5 mm above the monofoliate leaf node was removed with forceps 1 to 4 hours prior to treatment with the test compounds. Four plants were used for each test compound.
A 625-ppm solution of the test compound in a 2% aqueous acetone solution containing a small amount of a nonionic surfactant was sprayed onto the pinto bean plants until runoff. After drying, the treated plants were transferred to a greenhouse maintained at 20°-23° C. and watered at regular intervals. Twelve days after treatment, the bud growth at the axil of the monofoliate leaf was determined and expressed as percent inhibition of axillary bud growth as compared to untreated check plants.

Test [19] relates to Tomato Late Blight organism Phytophthora infestans. As to the kind of experiment: whole plant or invertebrate. The following applies: 168 h, read-out: Fungicidal Activity Control %, Tomato L.B.

The source of these data is patent US4407806A, “Fungicidal, herbicidal and plant growth regulating pyridyl-containing ethers” (Chevron Research Company, priority 1981, dated 1983).

One may read the inhibition as the share of the control response that was lost under treatment. On to `C=CCOC(c1cccnc1)c1ccc(Cl)cc1Cl` (stereo not drawn) [Compound 3, 3-pyridyl-2,4-dichlorophenylcarbinol allylether], for which the pest or weed control at 250 ppm in test [1] was determined as 100%; in test [9], 4%; in test [10], 15%; in [11] it was 48%; in test [19], 0%. Moreover, the plant injury at 33 µg/cm2 in the test with Soybean [2] is 0%. Besides, the pest or weed control at 33 µg/cm2 worked out at 0% in the test with Wild Oats (Avena fatura) [3]; 90% in test [4]; 98% in [5]; 85% in test [6]; 73% in test [7]; 45% in [8]. Moreover, the inhibition at 2000 ppm in the test on Cotton plants came out at 0%. Also, in the test on Soybean [12], the plant injury at 5000 ppm, 33 µg/cm2 came to 33%. Also, the pest or weed control at 5000 ppm, 33 µg/cm2 in the test with Wild Oats (Avena fatura) [13] was 0%; in test [14], 0%; in [15], 60%; in test [16], 50%; in test [17], 0%; in test [18] it was 25%. For the same compound, the pest or weed control at 625 µg/mL with Idaho pinto bean plants was 25%.
